Assay results as given in patent EP3212201B1, “NUCLEOSIDE KINASE INHIBITORS” (BCI Pharma, priority 2014, dated 2016).

Assays:
Test in all cases: FRET-based coupled-enzyme protein kinase inhibition assay
Type in all cases: biochemical
Details in all cases: compound at 10 µM, 1% DMSO
[1] = target: ABL1 (Homo sapiens, UniProt P00519)
Method in brief: (§1)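 Inhibition was quantified ratiometrically, as coumarin over fluorescein emission following 400 nm excitation, on a doubly labeled peptide whose cleavage by development reagent requires it to remain unphosphorylated. Kinase reactions ran 60 min at room temperature with ATP at apparent Km.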

[2] = target: AKT1 (PKB alpha) (Homo sapiens, UniProt P31749)
Method in brief: as §1

[3] = target: CSNK2A1 (CK2 alpha 1) (Homo sapiens, UniProt P68400)
Method in brief: as §1

[4] = target: KIT (Homo sapiens, UniProt P10721)
Method in brief: as §1

[5] = target: MAP2K1 (MEK1) (Homo sapiens, UniProt Q02750)
Method in brief: as §1

[6] = target: MET (cMet) (Homo sapiens, UniProt P08581)
Method in brief: as §1

[7] = target: T1, NEK1 (Homo sapiens, UniProt Q96PY6)
T1 sequence (Q96PY6 1-1258): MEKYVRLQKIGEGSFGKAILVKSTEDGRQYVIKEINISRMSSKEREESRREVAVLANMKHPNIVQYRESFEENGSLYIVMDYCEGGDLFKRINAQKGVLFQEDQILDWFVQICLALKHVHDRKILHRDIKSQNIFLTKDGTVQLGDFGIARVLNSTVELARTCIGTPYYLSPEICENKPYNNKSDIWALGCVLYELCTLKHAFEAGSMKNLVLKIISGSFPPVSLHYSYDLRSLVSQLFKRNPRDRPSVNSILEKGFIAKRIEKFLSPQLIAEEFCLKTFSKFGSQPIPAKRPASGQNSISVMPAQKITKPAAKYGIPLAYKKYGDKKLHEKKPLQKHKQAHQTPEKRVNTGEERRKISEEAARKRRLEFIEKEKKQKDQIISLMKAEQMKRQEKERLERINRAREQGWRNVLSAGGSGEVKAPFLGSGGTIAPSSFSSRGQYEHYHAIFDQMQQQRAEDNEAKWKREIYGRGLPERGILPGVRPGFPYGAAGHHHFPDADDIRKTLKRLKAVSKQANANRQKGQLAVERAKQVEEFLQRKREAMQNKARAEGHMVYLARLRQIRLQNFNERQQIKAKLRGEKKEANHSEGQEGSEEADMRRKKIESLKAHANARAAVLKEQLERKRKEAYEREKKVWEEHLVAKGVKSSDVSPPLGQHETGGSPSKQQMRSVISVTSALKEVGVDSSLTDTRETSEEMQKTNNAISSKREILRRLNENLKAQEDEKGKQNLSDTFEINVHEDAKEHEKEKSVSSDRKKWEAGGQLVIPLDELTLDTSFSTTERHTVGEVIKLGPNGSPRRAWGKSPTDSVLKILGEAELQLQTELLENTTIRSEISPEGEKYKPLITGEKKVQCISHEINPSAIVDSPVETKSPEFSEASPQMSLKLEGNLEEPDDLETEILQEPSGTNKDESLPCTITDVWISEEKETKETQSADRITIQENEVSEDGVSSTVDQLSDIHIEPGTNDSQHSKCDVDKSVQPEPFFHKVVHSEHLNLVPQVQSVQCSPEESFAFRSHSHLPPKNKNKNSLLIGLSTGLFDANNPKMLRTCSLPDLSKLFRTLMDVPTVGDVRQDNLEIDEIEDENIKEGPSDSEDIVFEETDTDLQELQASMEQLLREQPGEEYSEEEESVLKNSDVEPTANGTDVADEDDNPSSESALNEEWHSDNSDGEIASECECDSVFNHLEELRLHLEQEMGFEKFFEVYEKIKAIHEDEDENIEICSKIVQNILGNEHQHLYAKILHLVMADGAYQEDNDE
Method in brief: as §1

[8] = target: PDGFRB (PDGFR beta) (Homo sapiens, UniProt P09619)
Method in brief: as §1

[9] = target: PRKACA (PKA) (Homo sapiens, UniProt P17612)
Method in brief: as §1

[10] = target: TEK (Tie2) (Homo sapiens, UniProt Q02763)
Method in brief: as §1

AKT1 (PKB alpha), sequence (P31749 whole entry, species assumed): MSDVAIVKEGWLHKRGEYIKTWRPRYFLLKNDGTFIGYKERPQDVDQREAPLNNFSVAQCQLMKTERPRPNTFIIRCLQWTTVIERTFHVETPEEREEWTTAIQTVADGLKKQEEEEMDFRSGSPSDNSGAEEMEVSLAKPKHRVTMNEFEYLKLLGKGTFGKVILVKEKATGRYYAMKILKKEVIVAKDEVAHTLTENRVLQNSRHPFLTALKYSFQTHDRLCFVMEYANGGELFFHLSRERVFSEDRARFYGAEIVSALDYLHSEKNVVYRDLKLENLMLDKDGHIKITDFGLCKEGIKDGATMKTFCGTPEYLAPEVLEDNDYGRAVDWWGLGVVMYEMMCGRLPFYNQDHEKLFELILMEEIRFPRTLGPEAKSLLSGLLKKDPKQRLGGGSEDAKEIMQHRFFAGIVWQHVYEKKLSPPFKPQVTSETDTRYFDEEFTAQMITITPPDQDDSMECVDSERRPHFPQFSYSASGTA
CSNK2A1 (CK2 alpha 1), sequence (P68400 whole entry, species assumed): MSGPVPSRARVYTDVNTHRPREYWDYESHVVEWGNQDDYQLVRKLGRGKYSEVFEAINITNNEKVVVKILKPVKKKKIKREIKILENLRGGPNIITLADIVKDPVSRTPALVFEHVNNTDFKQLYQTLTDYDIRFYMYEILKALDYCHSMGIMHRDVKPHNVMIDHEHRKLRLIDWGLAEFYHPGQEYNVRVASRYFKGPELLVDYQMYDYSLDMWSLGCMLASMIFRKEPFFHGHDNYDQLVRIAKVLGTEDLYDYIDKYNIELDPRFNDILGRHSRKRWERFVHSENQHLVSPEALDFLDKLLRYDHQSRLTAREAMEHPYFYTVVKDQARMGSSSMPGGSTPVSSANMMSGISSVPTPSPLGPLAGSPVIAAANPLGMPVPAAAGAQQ
PDGFRB (PDGFR beta), sequence (P09619 33-1106, species assumed): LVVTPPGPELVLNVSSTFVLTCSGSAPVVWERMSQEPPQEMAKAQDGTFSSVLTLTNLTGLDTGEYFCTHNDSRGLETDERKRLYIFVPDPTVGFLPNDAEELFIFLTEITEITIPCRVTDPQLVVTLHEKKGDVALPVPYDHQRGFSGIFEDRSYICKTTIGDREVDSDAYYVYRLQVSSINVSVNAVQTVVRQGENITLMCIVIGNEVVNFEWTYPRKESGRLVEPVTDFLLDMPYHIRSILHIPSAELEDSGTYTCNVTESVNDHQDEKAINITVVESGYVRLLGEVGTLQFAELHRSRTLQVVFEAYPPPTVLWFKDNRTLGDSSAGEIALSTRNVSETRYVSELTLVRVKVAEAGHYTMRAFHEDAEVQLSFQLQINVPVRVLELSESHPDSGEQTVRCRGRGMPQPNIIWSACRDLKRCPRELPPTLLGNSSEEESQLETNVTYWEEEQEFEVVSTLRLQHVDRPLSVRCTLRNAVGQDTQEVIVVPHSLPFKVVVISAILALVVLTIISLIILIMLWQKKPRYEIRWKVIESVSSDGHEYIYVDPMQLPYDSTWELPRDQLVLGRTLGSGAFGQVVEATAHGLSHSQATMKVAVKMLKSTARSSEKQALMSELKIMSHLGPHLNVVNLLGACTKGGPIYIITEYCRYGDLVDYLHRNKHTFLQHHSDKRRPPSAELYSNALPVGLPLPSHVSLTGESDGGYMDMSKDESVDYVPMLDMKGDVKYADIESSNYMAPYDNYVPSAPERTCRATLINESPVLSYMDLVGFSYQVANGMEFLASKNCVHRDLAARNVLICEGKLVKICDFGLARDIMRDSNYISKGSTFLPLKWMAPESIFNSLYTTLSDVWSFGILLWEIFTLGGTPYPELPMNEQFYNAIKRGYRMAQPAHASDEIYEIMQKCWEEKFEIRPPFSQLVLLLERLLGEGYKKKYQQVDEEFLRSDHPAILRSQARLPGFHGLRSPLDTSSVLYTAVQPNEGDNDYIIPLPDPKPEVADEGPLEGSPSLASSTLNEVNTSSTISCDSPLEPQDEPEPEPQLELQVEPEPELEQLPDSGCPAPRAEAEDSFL
KIT, sequence (P10721 26-976, species assumed): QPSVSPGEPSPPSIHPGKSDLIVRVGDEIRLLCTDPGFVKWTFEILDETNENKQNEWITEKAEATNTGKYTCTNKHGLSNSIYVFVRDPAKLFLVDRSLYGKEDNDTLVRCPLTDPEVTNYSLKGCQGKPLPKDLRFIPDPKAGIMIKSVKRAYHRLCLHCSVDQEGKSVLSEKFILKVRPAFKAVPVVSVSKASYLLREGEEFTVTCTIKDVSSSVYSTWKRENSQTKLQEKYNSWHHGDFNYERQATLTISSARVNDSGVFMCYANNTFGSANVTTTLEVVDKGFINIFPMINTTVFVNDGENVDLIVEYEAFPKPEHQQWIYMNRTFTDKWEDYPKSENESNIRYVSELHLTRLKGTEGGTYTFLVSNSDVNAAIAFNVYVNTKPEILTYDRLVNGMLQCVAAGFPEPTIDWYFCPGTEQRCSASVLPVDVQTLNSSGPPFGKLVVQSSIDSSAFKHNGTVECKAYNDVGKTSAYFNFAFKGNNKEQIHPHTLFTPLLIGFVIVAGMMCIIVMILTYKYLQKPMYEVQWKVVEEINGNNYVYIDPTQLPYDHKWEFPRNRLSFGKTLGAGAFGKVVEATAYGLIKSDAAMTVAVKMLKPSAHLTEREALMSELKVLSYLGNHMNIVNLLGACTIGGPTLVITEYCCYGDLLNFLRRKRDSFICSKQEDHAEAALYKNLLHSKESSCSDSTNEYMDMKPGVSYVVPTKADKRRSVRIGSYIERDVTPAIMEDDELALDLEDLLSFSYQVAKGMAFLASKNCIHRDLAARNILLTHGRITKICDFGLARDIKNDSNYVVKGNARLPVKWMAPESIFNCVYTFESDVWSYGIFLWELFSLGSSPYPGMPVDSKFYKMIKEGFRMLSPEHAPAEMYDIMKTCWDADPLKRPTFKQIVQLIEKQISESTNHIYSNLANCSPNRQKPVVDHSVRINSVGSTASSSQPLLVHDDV
TEK (Tie2), sequence (Q02763 23-1124, species assumed): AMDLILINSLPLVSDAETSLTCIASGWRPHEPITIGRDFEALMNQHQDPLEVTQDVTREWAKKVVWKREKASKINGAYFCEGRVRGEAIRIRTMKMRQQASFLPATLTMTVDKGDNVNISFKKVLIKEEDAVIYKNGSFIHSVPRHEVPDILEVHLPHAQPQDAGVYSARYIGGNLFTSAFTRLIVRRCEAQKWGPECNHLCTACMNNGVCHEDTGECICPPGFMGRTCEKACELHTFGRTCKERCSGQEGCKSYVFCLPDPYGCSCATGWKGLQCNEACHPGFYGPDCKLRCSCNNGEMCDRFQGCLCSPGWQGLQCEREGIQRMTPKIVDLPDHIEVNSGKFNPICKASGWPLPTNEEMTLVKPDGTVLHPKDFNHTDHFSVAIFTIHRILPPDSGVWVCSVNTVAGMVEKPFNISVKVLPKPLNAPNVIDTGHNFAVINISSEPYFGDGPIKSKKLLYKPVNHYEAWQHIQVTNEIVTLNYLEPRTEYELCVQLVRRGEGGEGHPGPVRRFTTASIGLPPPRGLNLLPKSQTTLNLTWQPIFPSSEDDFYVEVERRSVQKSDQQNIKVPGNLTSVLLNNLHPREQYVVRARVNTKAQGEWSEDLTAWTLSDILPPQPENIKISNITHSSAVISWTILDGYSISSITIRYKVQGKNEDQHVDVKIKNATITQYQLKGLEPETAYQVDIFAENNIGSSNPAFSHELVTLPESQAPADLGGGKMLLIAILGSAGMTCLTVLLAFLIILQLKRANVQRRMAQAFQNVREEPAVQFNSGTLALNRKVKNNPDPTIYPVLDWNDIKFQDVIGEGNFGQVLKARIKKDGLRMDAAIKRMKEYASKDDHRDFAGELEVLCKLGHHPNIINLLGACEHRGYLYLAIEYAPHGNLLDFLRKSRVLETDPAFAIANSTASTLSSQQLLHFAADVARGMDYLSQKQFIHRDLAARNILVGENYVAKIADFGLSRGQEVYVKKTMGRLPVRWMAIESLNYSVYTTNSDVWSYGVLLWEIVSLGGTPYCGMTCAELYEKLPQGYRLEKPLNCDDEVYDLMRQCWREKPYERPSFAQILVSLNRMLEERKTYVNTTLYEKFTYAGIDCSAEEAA
MAP2K1 (MEK1), sequence (Q02750 whole entry, species assumed): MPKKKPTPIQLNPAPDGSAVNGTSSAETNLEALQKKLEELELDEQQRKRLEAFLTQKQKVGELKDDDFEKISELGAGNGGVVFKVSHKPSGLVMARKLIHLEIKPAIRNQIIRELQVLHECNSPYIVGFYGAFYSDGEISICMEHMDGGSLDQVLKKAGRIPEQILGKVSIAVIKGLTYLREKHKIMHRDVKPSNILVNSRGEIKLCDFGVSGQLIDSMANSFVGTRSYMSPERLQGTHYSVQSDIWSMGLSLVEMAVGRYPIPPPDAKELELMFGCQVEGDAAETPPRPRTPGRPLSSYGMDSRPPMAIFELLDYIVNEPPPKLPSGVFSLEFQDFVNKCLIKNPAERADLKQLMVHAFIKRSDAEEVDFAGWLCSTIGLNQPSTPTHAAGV

Nc1ncnc2c1ncn2[C@@H]1O[C@H](COC(=O)NCCCc2nc3ccccc3[nH]2)[C@@H](O)[C@H]1O [Compound C1]
inhibition at 10 µM [1]: 13% | inhibition at 10 µM [2]: -2% | inhibition at 10 µM [3]: -5% | inhibition at 10 µM [4]: 10% | inhibition at 10 µM [5]: 11% | inhibition at 10 µM [6]: 0% | inhibition at 10 µM [7]: -4% | inhibition at 10 µM [8]: 1% | inhibition at 10 µM [9]: 21% | inhibition at 10 µM [10]: 3%

C[C@@H](NC(=O)OC[C@H]1O[C@@H](n2cnc3c(N)ncnc32)[C@H](O)[C@@H]1O)c1ccc(Cl)cc1 [Compound C4]
inhibition at 10 µM [1]: 11% | inhibition at 10 µM [2]: -2% | inhibition at 10 µM [3]: 8% | inhibition at 10 µM [4]: 20% | inhibition at 10 µM [5]: 4% | inhibition at 10 µM [6]: 3% | inhibition at 10 µM [7]: 4% | inhibition at 10 µM [8]: 5% | inhibition at 10 µM [9]: 20% | inhibition at 10 µM [10]: 12%

Nc1ncnc2c1ncn2[C@@H]1O[C@H](COC(=O)NC[C@H](O)CO)[C@@H](O)[C@H]1O [Compound C8]
inhibition at 10 µM [1]: 22% | inhibition at 10 µM [2]: 7% | inhibition at 10 µM [3]: 5% | inhibition at 10 µM [4]: 28% | inhibition at 10 µM [5]: 10% | inhibition at 10 µM [6]: -16% | inhibition at 10 µM [7]: -5% | inhibition at 10 µM [8]: 5% | inhibition at 10 µM [9]: 43% | inhibition at 10 µM [10]: -3%

Nc1ncnc2c1ncn2[C@@H]1O[C@H](COC(=O)N2CCC[C@H]2CO)[C@@H](O)[C@H]1O [Compound C9]
inhibition at 10 µM [1]: -2% | inhibition at 10 µM [2]: 3% | inhibition at 10 µM [3]: 5% | inhibition at 10 µM [4]: -3% | inhibition at 10 µM [5]: -3% | inhibition at 10 µM [6]: -11% | inhibition at 10 µM [7]: -3% | inhibition at 10 µM [8]: -1% | inhibition at 10 µM [9]: -6% | inhibition at 10 µM [10]: -4%

Nc1ncnc2c1ncn2[C@@H]1O[C@H](COC(=O)N[C@@H]2CCN(Cc3ccccc3)C2)[C@@H](O)[C@H]1O [Compound C10]
inhibition at 10 µM [1]: 10% | inhibition at 10 µM [2]: 4% | inhibition at 10 µM [3]: 2% | inhibition at 10 µM [4]: 7% | inhibition at 10 µM [5]: 0% | inhibition at 10 µM [6]: -1% | inhibition at 10 µM [7]: 11% | inhibition at 10 µM [8]: 7% | inhibition at 10 µM [9]: 10% | inhibition at 10 µM [10]: 6%

Nc1ncnc2c1ncn2[C@@H]1O[C@H](COC(=O)N2CCN(Cc3ccccc3)CC2CO)[C@@H](O)[C@H]1O (some centres unmarked) [Compound C13]
inhibition at 10 µM [1]: 0% | inhibition at 10 µM [2]: 2% | inhibition at 10 µM [3]: 3% | inhibition at 10 µM [4]: 18% | inhibition at 10 µM [5]: 1% | inhibition at 10 µM [6]: 0% | inhibition at 10 µM [7]: 4% | inhibition at 10 µM [8]: 6% | inhibition at 10 µM [9]: -1% | inhibition at 10 µM [10]: 5%

CC(C)N1CCC(NC(=O)OC[C@H]2O[C@@H](n3cnc4c(N)ncnc43)[C@H](O)[C@@H]2O)CC1 [Compound C19]
inhibition at 10 µM [1]: -3% | inhibition at 10 µM [2]: 3% | inhibition at 10 µM [3]: 5% | inhibition at 10 µM [4]: -1% | inhibition at 10 µM [5]: -2% | inhibition at 10 µM [6]: 2% | inhibition at 10 µM [7]: -2% | inhibition at 10 µM [8]: 6% | inhibition at 10 µM [9]: 4% | inhibition at 10 µM [10]: 6%

Nc1ncnc2c1ncn2[C@@H]1O[C@H](COC(=O)NCCN2CCCC2=O)[C@@H](O)[C@H]1O [Compound C22]
inhibition at 10 µM [1]: -5% | inhibition at 10 µM [2]: 0% | inhibition at 10 µM [3]: 2% | inhibition at 10 µM [4]: 3% | inhibition at 10 µM [5]: -3% | inhibition at 10 µM [6]: 1% | inhibition at 10 µM [7]: -2% | inhibition at 10 µM [8]: 4% | inhibition at 10 µM [9]: 0% | inhibition at 10 µM [10]: 0%
